Source: patent US20230150974A1 (Foghorn Therapeutics Inc., priority 2020, published 2023)
Structures can show the parent of a compound that is named as a salt.

Columns and labels:
HiBiT-BRM = molecular target: T1, HiBiT-BRM (Homo sapiens, UniProt P51531); experiment: HiBiT-BRM cell-based degradation assay (Nano-Glo HiBiT Lytic Detection); details: HeLa cells expressing HiBiT-BRM, 24 h; for DC50: read-out: BRM HiBit Degradation IC50
T1 construct: expressed in transfected cells
Method in brief: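 Luminescence from HiBiT–LgBiT complementation in lysates of a stable HiBiT-BRM HeLa line measured after 24 h compound exposure. Degradation expressed as percent relative to DMSO-treated cells and cells given 2 μM of a known BRM/BRG1 degrader.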

HiBit-BRG1 = molecular target: T2, HiBit-BRG1 (Homo sapiens, UniProt P51532); experiment: HiBit-BRG1 cell-based degradation assay (Nano-Glo HiBiT Lytic Detection); details: HeLa cells expressing HiBit-BRG1 and LgBit, 24 h; for DC50: read-out: BRG1 HiBit Degradation IC50; for Dmax: read-out: BRG1 HiBit Degradation Maximum (%)
T2 construct: expressed in transfected cells
Method in brief: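 HeLa cells stably expressing HiBiT-BRG1 plus LgBit, 5000/well, treated 24 h, then lysed with Nano-Glo HiBiT lytic reagent and luminescence read. % degradation normalised between DMSO (high control) and 2 μM reference BRM/BRG1 degrader (low control).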

T1 sequence (P51531 whole entry): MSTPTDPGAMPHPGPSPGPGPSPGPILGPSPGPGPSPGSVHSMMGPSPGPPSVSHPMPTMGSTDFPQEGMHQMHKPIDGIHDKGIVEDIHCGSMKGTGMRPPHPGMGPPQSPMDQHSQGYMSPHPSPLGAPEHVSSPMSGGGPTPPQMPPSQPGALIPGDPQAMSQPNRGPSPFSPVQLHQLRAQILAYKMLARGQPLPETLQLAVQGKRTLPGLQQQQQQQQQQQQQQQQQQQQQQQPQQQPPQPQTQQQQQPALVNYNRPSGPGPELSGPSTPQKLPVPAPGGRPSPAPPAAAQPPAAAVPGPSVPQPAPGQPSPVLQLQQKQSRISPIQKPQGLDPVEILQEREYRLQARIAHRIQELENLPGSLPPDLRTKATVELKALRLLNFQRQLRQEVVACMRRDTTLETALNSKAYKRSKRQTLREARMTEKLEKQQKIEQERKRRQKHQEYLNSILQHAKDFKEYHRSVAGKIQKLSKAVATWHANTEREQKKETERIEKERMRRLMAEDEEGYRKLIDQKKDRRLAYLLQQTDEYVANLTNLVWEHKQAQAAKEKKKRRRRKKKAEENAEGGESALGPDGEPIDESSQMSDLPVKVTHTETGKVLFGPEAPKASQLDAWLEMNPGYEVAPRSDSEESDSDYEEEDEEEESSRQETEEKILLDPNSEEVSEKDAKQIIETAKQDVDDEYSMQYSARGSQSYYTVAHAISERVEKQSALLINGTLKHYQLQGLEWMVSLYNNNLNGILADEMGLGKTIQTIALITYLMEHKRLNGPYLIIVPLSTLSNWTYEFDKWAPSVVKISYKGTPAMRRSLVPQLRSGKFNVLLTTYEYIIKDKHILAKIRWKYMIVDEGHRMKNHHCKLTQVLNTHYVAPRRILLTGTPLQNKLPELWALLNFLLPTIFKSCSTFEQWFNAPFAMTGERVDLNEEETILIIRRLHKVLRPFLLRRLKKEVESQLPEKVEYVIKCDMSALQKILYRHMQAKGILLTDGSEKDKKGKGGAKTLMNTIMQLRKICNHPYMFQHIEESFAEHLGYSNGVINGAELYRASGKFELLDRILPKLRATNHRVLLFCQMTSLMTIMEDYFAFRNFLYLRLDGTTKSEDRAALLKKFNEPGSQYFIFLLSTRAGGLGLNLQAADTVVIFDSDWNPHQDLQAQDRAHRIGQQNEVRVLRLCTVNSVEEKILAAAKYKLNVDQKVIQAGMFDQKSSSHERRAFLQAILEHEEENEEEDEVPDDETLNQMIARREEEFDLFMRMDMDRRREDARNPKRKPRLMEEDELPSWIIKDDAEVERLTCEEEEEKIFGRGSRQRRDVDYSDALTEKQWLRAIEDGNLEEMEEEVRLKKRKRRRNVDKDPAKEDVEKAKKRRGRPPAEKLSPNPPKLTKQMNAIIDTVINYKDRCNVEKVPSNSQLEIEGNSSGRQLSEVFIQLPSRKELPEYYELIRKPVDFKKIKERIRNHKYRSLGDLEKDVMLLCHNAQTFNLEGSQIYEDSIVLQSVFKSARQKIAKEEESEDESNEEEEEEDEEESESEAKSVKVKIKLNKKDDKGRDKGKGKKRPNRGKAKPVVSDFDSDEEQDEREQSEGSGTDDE
T2 sequence (P51532 whole entry): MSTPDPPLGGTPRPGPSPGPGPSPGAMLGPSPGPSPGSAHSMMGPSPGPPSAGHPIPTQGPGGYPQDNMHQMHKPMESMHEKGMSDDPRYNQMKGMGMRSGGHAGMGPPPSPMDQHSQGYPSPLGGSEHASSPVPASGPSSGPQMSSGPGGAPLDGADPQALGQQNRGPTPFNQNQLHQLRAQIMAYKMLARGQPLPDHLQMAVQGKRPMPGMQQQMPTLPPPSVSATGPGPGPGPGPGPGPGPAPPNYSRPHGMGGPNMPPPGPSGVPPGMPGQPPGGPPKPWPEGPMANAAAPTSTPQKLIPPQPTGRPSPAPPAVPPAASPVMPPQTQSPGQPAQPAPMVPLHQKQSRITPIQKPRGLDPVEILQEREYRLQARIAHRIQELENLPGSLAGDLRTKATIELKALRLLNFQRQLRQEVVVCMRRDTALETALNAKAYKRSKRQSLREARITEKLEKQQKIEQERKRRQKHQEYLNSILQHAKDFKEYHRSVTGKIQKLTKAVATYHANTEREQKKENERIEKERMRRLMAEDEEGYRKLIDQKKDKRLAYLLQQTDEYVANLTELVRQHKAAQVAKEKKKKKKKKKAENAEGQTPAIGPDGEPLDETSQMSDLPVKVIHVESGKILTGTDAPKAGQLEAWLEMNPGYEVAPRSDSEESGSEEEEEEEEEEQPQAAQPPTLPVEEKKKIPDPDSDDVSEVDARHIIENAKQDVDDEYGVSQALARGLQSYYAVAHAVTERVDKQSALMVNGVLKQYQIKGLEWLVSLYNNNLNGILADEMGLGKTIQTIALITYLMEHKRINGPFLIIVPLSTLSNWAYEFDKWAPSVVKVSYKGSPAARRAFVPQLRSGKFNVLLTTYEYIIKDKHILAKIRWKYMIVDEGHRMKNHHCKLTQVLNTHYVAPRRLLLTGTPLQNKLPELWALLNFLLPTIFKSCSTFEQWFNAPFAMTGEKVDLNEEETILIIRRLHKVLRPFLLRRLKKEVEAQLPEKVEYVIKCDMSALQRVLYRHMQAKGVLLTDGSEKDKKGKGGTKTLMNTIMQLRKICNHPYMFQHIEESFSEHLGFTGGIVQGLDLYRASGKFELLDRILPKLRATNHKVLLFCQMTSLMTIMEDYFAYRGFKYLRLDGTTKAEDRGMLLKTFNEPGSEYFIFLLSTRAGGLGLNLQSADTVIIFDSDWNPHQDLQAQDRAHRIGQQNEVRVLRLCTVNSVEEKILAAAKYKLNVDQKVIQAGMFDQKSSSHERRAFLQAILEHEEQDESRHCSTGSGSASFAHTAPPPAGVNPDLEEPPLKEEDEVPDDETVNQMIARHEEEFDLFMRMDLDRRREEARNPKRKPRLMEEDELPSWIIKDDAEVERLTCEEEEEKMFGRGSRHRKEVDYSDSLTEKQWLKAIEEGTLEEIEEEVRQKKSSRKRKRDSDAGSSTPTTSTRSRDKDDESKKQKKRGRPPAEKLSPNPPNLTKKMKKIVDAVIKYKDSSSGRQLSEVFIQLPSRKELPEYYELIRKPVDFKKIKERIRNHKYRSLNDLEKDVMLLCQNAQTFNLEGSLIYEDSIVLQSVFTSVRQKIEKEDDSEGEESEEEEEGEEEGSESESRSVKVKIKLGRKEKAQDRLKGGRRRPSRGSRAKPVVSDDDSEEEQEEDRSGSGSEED

| SMILES | DC50 (HiBiT-BRM) [µM] | DC50 (HiBit-BRG1) [µM] | Dmax (HiBit-BRG1) [%] | BRM HiBit Degradation Maximum (%) (HiBiT-BRM) |
| --- | --- | --- | --- | --- |
| Cc1ncsc1-c1ccc(CNC(=O)[C@@H]2C[C@@H](O)CN2C(=O)[C@@H](NC(=O)CCCC(=O)NCc2ccc(CCOc3cc(-c4ccccc4O)nnc3N)cc2)C(C)(C)C)cc1 [Compound 34] | > 1 | > 1 | < 50 | B (“B” indicates maximum degradation ≥50%) |
| Nc1nnc(-c2ccccc2O)cc1OCCc1ccc(CNC(=O)COc2cccc3c2C(=O)N(C2CCC(=O)NC2=O)C3=O)cc1 (stereo not shown) [Compound 62, N-[[4-(2-[[3-amino-6-(2-hydroxyphenyl)pyridazin-4-yl]oxy]ethyl)phenyl]methyl]-2-[[2-(2,6-dioxopiperidin-3-yl)-1,3-dioxoisoindol-4-yl]oxy]acetamide] | > 1 | > 0.1 | > 50 | C (“C” indicates maximum degradation <50%) |
| CN(CCNC(=O)COc1cccc2c1C(=O)N(C1CCC(=O)NC1=O)C2=O)CCNC(=O)c1ccc(CCOc2cc(-c3ccccc3O)nnc2N)cc1 (stereo not shown) [Compound 58, N-[2-[(2-[[4-(2-[[3-amino-6-(2-hydroxyphenyl)pyridazin-4-yl]oxy]ethyl)phenyl]formamido]ethyl)(methyl)amino]ethyl]-2-[[2-(2,6-dioxopiperidin-3-yl)-1,3-dioxoisoindol-4-yl]oxy]acetamide] | > 1 | > 1 | < 50 | C (“C” indicates maximum degradation <50%) |
| Nc1nnc(-c2cc(F)cc(Cl)c2O)cc1OCCc1ccc(CNCCCCCOc2cccc3c2C(=O)N(C2CCC(=O)NC2=O)C3=O)cc1 (stereo not shown) [Compound 119, 4-((5-((4-(2-((3-amino-6-(3-chloro-5-fluoro-2-hydroxyphenyl)pyridazin-4-yl)oxy)ethyl)benzyl)amino)pentyl)oxy)-2-(2,6-dioxopiperidin-3-yl)isoindoline-1,3-dione; formic acid salt] | > 1 | > 1 | > 50 | C (“C” indicates maximum degradation <50%) |
| Nc1nnc(-c2ccccc2O)cc1OCCc1ccc(CN2CC(CCCOc3cccc4c3C(=O)N(C3CCC(=O)NC3=O)C4=O)C2)cc1 (stereo not shown) [Compound 127, 4-[3-(1-[[4-(2-[[3-amino-6-(2-hydroxyphenyl)pyridazin-4-yl]oxy]ethyl)phenyl]methyl]azetidin-3-yl)propoxy]-2-(2,6-dioxopiperidin-3-yl)isoindole-1,3-dione] | > 1 | > 1 | < 50 | C (“C” indicates maximum degradation <50%) |
| Nc1nnc(-c2ccccc2O)cc1OCCc1ccc(CNC(=O)CCCCNc2cccc3nnn(C4CCC(=O)NC4=O)c(=O)c23)cc1 (stereo not shown) [Compound 1, N-(4-(2-((3-amino-6-(2-hydroxyphenyl)pyridazin-4-yl)oxy)ethyl)benzyl)-5-((3-(2,6-dioxopiperidin-3-yl)-4-oxo-3,4-dihydrobenzo[d][1,2,3]triazin-5-yl)amino)pentanamide] | > 0.1 | > 1 | – | – |

Second part, led by results:

| DC50 (HiBiT-BRM) [µM] | DC50 (HiBit-BRG1) [µM] | Dmax (HiBit-BRG1) [%] | SMILES | BRM HiBit Degradation Maximum (%) (HiBiT-BRM) |
| --- | --- | --- | --- | --- |
| > 0.01 | > 1 | < 50 | Cc1ncsc1-c1ccc([C@H](C)NC(=O)[C@@H]2C[C@@H](O)CN2C(=O)[C@@H](NC(=O)CCCCCCCCCCCCCCC(=O)N(C)Cc2ccc(CCOc3cc(-c4ccccc4O)nnc3N)cc2)C(C)(C)C)cc1 [Compound 215, N1-(4-(2-((3-amino-6-(2-hydroxyphenyl)pyridazin-4-yl)oxy)ethyl)benzyl)-N16-((S)-1-((2S,4R)-4-hydroxy-2-(((S)-1-(4-(4-methylthiazol-5-yl)phenyl)ethyl)carbamoyl)pyrrolidin-1-yl)-3,3-dimethyl-1-oxobutan-2-yl)-N1-methylhexadecanediamide] | A (“A” indicates maximum degradation ≥75%) |
| > 0.1 | > 0.1 | > 75 | Cc1ncsc1-c1ccc([C@H](C)NC(=O)[C@@H]2C[C@@H](O)CN2C(=O)[C@@H](c2cc(OCCN3CC4CN(C(=O)c5ccc(CCOc6cc(-c7ccccc7O)nnc6N)cc5)CC43)no2)C(C)C)cc1 (stereo partly drawn) [Compound 225, (2S,4R)-1-((2R)-2-(3-(2-(3-(4-(2-((3-amino-6-(2-hydroxyphenyl)pyridazin-4-yl)oxy)ethyl)benzoyl)-3,6-diazabicyclo[3.2.0]heptan-6-yl)ethoxy)isoxazol-5-yl)-3-methylbutanoyl)-4-hydroxy-N-((S)-1-(4-(4-methylthiazol-5-yl)phenyl)ethyl)pyrrolidine-2-carboxamide] | A (“A” indicates maximum degradation ≥75%) |
| > 0.01 | > 1 | < 50 | Cc1ncsc1-c1ccc([C@H](C)NC(=O)[C@@H]2C[C@@H](O)CN2C(=O)[C@@H](NC(=O)CCCCCCCCC(=O)NCc2ccc(CCOc3cc(-c4ccccc4O)nnc3N)cc2)C(C)(C)C)cc1 [Compound 257, N1-(4-(2-((3-amino-6-(2-hydroxyphenyl)pyridazin-4-yl)oxy)ethyl)benzyl)-N10-((S)-1-((2S,4R)-4-hydroxy-2-(((S)-1-(4-(4-methylthiazol-5-yl)phenyl)ethyl)carbamoyl)pyrrolidin-1-yl)-3,3-dimethyl-1-oxobutan-2-yl)decanediamide] | A (“A” indicates maximum degradation ≥75%) |
| > 0.1 | > 1 | < 50 | Nc1nnc(-c2ccccc2O)cc1OCCc1ccc(CNC(=O)CCCCNc2cccc3c2C(=O)N(C2CCC(=O)NC2=O)C3)cc1 (stereo not shown) [Compound 155, N-(4-(2-((3-amino-6-(2-hydroxyphenyl)pyridazin-4-yl)oxy)ethyl)benzyl)-5-((2-(2,6-dioxopiperidin-3-yl)-3-oxoisoindolin-4-yl)amino)pentanamide] | A (“A” indicates maximum degradation ≥75%) |
| > 0.01 | > 0.1 | > 75 | Cc1ncsc1-c1ccc([C@H](C)NC(=O)[C@@H]2C[C@@H](O)CN2C(=O)[C@@H](c2cc(OCCN3CCC(C(=O)NCc4ccc(CCOc5cc(-c6ccccc6O)nnc5N)cc4)CC3)no2)C(C)C)cc1 [Compound 176, N-(4-(2-((3-amino-6-(2-hydroxyphenyl)pyridazin-4-yl)oxy)ethyl)benzyl)-1-(2-((5-((R)-1-((2S,4R)-4-hydroxy-2-(((S)-1-(4-(4-methylthiazol-5-yl)phenyl)ethyl)carbamoyl)pyrrolidin-1-yl)-3-methyl-1-oxobutan-2-yl)isoxazol-3-yl)oxy)ethyl)piperidine-4-carboxamide] | A (“A” indicates maximum degradation ≥75%) |
| > 0.1 | > 1 | < 50 | Cc1ncsc1-c1ccc(CNC(=O)[C@@H]2C[C@@H](O)CN2C(=O)[C@@H](NC(=O)CCCCCCCCCCCCCCCC(=O)NCc2ccc(CCOc3cc(-c4ccccc4O)nnc3N)cc2)C(C)C)cc1 [Compound 173, N1-(4-(2-((3-amino-6-(2-hydroxyphenyl)pyridazin-4-yl)oxy)ethyl)benzyl)-N17-((S)-1-((2S,4R)-4-hydroxy-2-((4-(4-methylthiazol-5-yl)benzyl)carbamoyl)pyrrolidin-1-yl)-3-methyl-1-oxobutan-2-yl)heptadecanediamide] | B (“B” indicates maximum degradation ≥50%) |
